Values of other authors, collected in US20190358212A1, “USES OF EGFR/HER2 INHIBITOR COMBINED WITH PYRIMIDINE-TYPE ANTI-METABOLIC DRUG” (Jiangsu Hengrui Medicine Co., Ltd., priority 2017, published 2019).

Experiments:
[1] = test system: HER2+ metastatic breast cancer; settings: J Clin Oncol 33, 2015 (suppl; abstr e11596)
HER2 = HER2 (Homo sapiens, UniProt P04626); settings: CN102471312A
EGFR = EGFR (Homo sapiens, UniProt P00533); settings: CN102471312A
Sequence of EGFR (P00533 25-1210): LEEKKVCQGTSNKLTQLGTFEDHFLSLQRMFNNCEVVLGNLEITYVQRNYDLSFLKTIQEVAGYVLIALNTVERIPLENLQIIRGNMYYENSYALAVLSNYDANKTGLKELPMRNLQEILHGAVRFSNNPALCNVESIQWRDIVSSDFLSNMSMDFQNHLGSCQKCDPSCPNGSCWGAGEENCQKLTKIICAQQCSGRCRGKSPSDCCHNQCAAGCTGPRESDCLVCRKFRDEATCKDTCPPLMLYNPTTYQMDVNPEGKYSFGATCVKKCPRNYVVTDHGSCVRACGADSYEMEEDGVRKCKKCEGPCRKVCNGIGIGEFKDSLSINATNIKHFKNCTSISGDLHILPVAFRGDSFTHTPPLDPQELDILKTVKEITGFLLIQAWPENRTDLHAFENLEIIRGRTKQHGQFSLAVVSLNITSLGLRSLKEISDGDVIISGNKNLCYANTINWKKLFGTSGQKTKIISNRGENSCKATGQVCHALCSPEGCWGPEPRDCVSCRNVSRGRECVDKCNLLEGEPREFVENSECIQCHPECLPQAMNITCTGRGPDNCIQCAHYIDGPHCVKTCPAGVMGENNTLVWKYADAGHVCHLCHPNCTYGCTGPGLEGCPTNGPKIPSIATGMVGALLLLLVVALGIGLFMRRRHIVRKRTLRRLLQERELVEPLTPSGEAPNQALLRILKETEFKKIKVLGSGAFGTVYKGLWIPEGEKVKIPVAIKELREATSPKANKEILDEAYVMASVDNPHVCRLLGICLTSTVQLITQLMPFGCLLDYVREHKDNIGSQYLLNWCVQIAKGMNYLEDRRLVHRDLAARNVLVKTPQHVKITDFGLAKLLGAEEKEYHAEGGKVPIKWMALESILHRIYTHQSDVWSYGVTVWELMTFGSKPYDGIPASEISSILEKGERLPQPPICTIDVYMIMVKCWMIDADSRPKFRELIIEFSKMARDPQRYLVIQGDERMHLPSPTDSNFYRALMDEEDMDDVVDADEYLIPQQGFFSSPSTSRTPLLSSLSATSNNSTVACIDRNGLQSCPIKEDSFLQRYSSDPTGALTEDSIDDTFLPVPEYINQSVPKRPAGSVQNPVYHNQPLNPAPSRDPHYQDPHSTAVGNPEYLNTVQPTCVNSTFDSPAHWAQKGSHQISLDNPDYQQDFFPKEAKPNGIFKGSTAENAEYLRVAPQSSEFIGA

Sequence of HER2 (P04626 23-1255): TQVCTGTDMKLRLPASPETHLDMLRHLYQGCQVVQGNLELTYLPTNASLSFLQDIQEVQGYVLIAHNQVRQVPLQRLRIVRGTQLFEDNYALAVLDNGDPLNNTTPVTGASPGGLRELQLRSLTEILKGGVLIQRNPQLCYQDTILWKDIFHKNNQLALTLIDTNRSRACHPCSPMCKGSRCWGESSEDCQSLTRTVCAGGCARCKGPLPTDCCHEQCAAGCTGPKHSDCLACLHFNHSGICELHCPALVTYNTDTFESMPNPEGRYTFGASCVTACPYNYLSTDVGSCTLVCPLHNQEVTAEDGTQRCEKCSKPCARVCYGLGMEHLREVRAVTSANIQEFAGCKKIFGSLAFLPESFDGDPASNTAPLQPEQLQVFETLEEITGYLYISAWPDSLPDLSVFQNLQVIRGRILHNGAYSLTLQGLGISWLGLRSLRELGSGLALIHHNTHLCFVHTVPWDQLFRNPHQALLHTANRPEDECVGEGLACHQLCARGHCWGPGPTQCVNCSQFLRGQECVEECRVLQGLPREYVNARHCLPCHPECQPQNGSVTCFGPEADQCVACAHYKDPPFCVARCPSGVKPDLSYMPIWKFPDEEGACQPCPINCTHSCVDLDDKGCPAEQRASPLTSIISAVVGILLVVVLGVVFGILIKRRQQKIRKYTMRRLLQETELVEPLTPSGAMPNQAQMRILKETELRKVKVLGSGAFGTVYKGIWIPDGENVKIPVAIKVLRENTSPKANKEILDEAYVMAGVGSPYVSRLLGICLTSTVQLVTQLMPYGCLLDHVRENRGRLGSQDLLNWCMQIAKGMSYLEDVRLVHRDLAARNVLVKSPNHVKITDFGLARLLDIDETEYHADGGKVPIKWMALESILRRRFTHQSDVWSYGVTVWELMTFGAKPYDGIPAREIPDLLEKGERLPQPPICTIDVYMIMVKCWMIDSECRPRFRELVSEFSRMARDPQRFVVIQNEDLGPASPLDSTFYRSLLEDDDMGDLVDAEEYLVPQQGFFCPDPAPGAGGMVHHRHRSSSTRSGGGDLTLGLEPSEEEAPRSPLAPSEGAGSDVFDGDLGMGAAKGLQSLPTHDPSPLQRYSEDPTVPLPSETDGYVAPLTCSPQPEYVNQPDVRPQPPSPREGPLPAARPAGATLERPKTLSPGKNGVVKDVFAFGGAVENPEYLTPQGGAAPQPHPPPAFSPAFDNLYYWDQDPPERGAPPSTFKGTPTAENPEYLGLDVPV

inhibition effect on HER2 (HER2): potent inhibition effect | inhibition effect on EGFR (EGFR): potent inhibition effect
Structure (SMILES): CCOc1cc2ncc(C#N)c(Nc3ccc(OCc4ccccn4)c(Cl)c3)c2cc1NC(=O)/C=C/[C@H]1CCCN1C [Compound A, (E)-N-[4-[[3-chloro-4-(2-pyridylmethoxy)phenyl]amino]-3-cyano-7-ethoxy-6-quinolyl]-3-[(2R)-1-methylpyrrolidin-2-yl]prop-2-enamide]
effect on patients with HER2+ metastatic breast cancer [1]: a certain effect
